Laboratory results taken from patent publication US20100080785A1, “DRIED FORMULATIONS” (Zymes, LLC, priority 2008, published 2010).

Assays:
[1] = stability and shelf life at ambient conditions; type: physicochemical; conditions: ubiquinol
Description: By contrast, the dry formulations of ubiquinol disclosed herein remains white for weeks at ambient conditions.
By contrast, the dry formulations of omega-3 fatty acid disclosed herein remains odorless for weeks at ambient conditions.

[2] = stability of the solution on heating to 50-55° C.; type: physicochemical

Row | degradation on heating without pH adjustment [2] | Compound | oxidation / colour on storage [1]
1 | – | COc1c(O)c(C)c(C/C=C(\C)CC/C=C(\C)CC/C=C(\C)CC/C=C(\C)CC/C=C(\C)CC/C=C(\C)CC/C=C(\C)CC/C=C(\C)CC/C=C(\C)CCC=C(C)C)c(O)c1OC [bulk ubiquinol, ubiquinol] | gradually oxidizes and develops a yellow hue
2 | decomposes and undergoes hydrolysis | polyoxyethanyl tocopheryl sebacate [PTS] | –
